From the NIST ThermoML archive (doi:10.1021/acs.jced.9b00507)

Test: xn = mol fraction of the nth substance listed
Conditions: 100 kPa, Liquid; for viscosity: Concentric cylinders viscometry; for mass density: Vibrating tube method

CCCCCCn1cc[n+](C)c1.O=[N+]([O-])[O-] [1-hexyl-3-methylimidazolium nitrate] + CCCCCCCCO
Conditions | mass density [kg/m3] | viscosity [mPa·s]
293.15 K, x1 = 0.0806 | 856.1 | 15.49
293.15 K, x1 = 0.1591 | 885.1 | 23.39
293.15 K, x1 = 0.2392 | 913.2 | 34.36
293.15 K, x1 = 0.3493 | 949.6 | 55.85
293.15 K, x1 = 0.4396 | 977.6 | 83.56
293.15 K, x1 = 0.5621 | 1013.2 | 149.62
293.15 K, x1 = 0.649 | 1036.9 | 222.84
293.15 K, x1 = 0.7407 | 1060.6 | 331.13
293.15 K, x1 = 0.8495 | 1087 | 504.66
293.15 K, x1 = 0.9397 | 1107.4 | 677.63
293.15 K, x1 = 1 | 1120.3 | 804.17
298.15 K, x1 = 0.0806 | 852.6 | 11.3
298.15 K, x1 = 0.1591 | 881.4 | 15.96
298.15 K, x1 = 0.2392 | 909.5 | 22.23
298.15 K, x1 = 0.3493 | 946 | 34.83
298.15 K, x1 = 0.4396 | 974 | 51.05
298.15 K, x1 = 0.5621 | 1009.7 | 89.33
298.15 K, x1 = 0.649 | 1033.6 | 133.05
298.15 K, x1 = 0.7407 | 1057.3 | 205.44
298.15 K, x1 = 0.8495 | 1083.8 | 321.84
298.15 K, x1 = 0.9397 | 1104.4 | 446.63
298.15 K, x1 = 1 | 1117.5 | 545.25
303.15 K, x1 = 0.0806 | 848.9 | 8.53
303.15 K, x1 = 0.1591 | 877.7 | 11.46
303.15 K, x1 = 0.2392 | 905.8 | 15.38
303.15 K, x1 = 0.3493 | 942.3 | 23.23
303.15 K, x1 = 0.4396 | 970.3 | 33.11
303.15 K, x1 = 0.5621 | 1006.1 | 54.2
303.15 K, x1 = 0.649 | 1030 | 78.89
303.15 K, x1 = 0.7407 | 1053.8 | 122.74
303.15 K, x1 = 0.8495 | 1080.4 | 203.15
303.15 K, x1 = 0.9397 | 1101.1 | 292.37
303.15 K, x1 = 1 | 1114.3 | 369.14
308.15 K, x1 = 0.0806 | 845.3 | 6.7
308.15 K, x1 = 0.1591 | 874.1 | 8.47
308.15 K, x1 = 0.2392 | 902.1 | 10.57
308.15 K, x1 = 0.3493 | 938.6 | 14.52
308.15 K, x1 = 0.4396 | 966.7 | 19.63
308.15 K, x1 = 0.5621 | 1002.5 | 32.58
308.15 K, x1 = 0.649 | 1026.4 | 47.1
308.15 K, x1 = 0.7407 | 1050.3 | 73.28
308.15 K, x1 = 0.8495 | 1077 | 127.64
308.15 K, x1 = 0.9397 | 1097.8 | 197.38
308.15 K, x1 = 1 | 1111.1 | 257.59
313.15 K, x1 = 0.0806 | 841.7 | 5.41
313.15 K, x1 = 0.1591 | 870.4 | 6.35
313.15 K, x1 = 0.2392 | 898.4 | 7.59
313.15 K, x1 = 0.3493 | 934.8 | 10
313.15 K, x1 = 0.4396 | 963 | 12.88
313.15 K, x1 = 0.5621 | 998.8 | 19.77
313.15 K, x1 = 0.649 | 1022.7 | 28.31
313.15 K, x1 = 0.7407 | 1046.7 | 44.73
313.15 K, x1 = 0.8495 | 1073.5 | 81.32
313.15 K, x1 = 0.9397 | 1094.4 | 135.25
313.15 K, x1 = 1 | 1107.8 | 185.67
318.15 K, x1 = 0.0806 | 838 | 4.25
318.15 K, x1 = 0.1591 | 866.7 | 4.67
318.15 K, x1 = 0.2392 | 894.7 | 5.41
318.15 K, x1 = 0.3493 | 931.2 | 7.05
318.15 K, x1 = 0.4396 | 959.3 | 8.91
318.15 K, x1 = 0.5621 | 995.2 | 13.87
318.15 K, x1 = 0.649 | 1019.2 | 19.95
318.15 K, x1 = 0.7407 | 1043.2 | 31.92
318.15 K, x1 = 0.8495 | 1070.1 | 56.98
318.15 K, x1 = 0.9397 | 1091.1 | 99.97
318.15 K, x1 = 1 | 1104.7 | 140.18
323.15 K, x1 = 0.0806 | 834.4 | 3.56
323.15 K, x1 = 0.1591 | 863 | 3.84
323.15 K, x1 = 0.2392 | 891 | 4.28
323.15 K, x1 = 0.3493 | 927.5 | 5.25
323.15 K, x1 = 0.4396 | 955.7 | 6.46
323.15 K, x1 = 0.5621 | 991.6 | 9.46
323.15 K, x1 = 0.649 | 1015.7 | 13.58
323.15 K, x1 = 0.7407 | 1039.8 | 22.08
323.15 K, x1 = 0.8495 | 1066.8 | 42.16
323.15 K, x1 = 0.9397 | 1087.9 | 76.46
323.15 K, x1 = 1 | 1101.6 | 110.94
